{
  "source": "paper PMC13203959",
  "about": "“New inhibitors of the Pseudomonas aeruginosa enzyme, PqsE, and methods assessing their potential to induce a conformational change via active site binding” (mSphere, 2026)",
  "key": {"PqsE(S285D)": {"target": "T1, PqsE(S285D) (Pseudomonas aeruginosa, UniProt P20581, S285D)", "T1 construct": "made in house", "format": "binding", "settings": "PqsE(S285D) 2 µM, compound 100 µM"}, "PqsE-RhlR interaction": {"target": "T2, PqsE-RhlR interaction (Pseudomonas aeruginosa, UniProt P20581)", "T2 construct": "made in house; host or cells: Escherichia coli (PqsE purified; RhlR as crude lysate from a pET23a-rhlR strain grown with mBTL)", "experiment": "PqsE-RhlR in vitro pull-down", "format": "binding", "settings": "up to 100 µM, 1 µM 6xHis-PqsE(WT), RhlR-containing lysate", "experimental": "RhlR was expressed following a previously established method ([18], [19]). Briefly, lysate was prepared from cultures of an Escherichia coli strain carrying rhlR on a pET23a plasmid that had been treated with the RhlR-solubilizing ligand, mBTL ([33]). The pull-down assay was conducted following a previously established method with some modifications ([18]). Briefly, purified 6xHis-PqsE(WT) was incubated with test molecules at the specified concentrations for 10 min at room temperature. The treated PqsE was then added to 100 µL of RhlR-containing lysate in lysis buffer (50 mM Tris-HCl, 150 mM NaCl, 20 mM imidazole, pH = 8.0) to a total final volume of 150 µL and a final PqsE concentration of 1 µM (final 0.6% DMSO). The mixtures were incubated at 4°C with rotation for 30 min before MagneHis Ni resin (Promega) was added (10 µL of settle volume), and incubation at 4°C with rotation was continued for 1 h. The Ni resin was then washed three times with lysis buffer, and then PqsE complexes were eluted with 50 µL elution buffer (50 mM Tris-HCl, 150 mM NaCl, 500 mM imidazole, pH = 8.0). The eluted proteins were then denatured in Laemmli sample buffer at 95°C and analyzed by SDS-PAGE."}, "PqsE(WT) [1]": {"target": "T3, PqsE(WT) (Pseudomonas aeruginosa, UniProt P20581)", "T3 construct": "6xHis (N); made in house; host or cells: E. coli BL21 (DE3)", "experiment": "Esterase assay: inhibition of PqsE-catalyzed MU-butyrate hydrolysis", "format": "biochemical", "settings": "% inhibition", "experimental": "Purified PqsE, diluted in assay buffer (50 mM Tricine, 0.01% Triton X-100, pH 8.5), was added to the wells of an opaque 384-well plate at a final concentration of 125 nM. Test molecules were diluted in DMSO and added to the wells at the indicated concentrations (5% DMSO final). The plate was then incubated at room temperature for 5 min. MU-butyrate in assay buffer was added to the plate at a final concentration of 2 µM. The plate was incubated at room temperature for 20 min prior to measuring fluorescence (excitation: 360 nm and emission: 450 nm) to monitor the hydrolysis of MU-butyrate. All data were plotted in the Prism 9.0 program, and IC50 values were calculated from inhibition curves fit to the data."}, "PqsE(WT) [2]": {"target": "T3, PqsE(WT)", "experiment": "Differential scanning fluorimetry (DSF), PqsE(WT)", "format": "binding", "settings": "PqsE(WT) 2 µM, compound 100 µM", "experimental": "Compounds HJ1, HJ2, and HJ5 were tested for the ability to bind and shift the Tm of purified PqsE and PqsE variants using DSF as described previously with some modifications ([18]). Briefly, compounds in DMSO were diluted in assay buffer (50 mM Tris, 150 mM NaCl, 200 µM MnCl2, pH 8) to achieve a final concentration of 100 µM (1% DMSO). Compound solutions were transferred to the wells of a 96-well PCR plate (ThermoFisher), and control wells were prepared with 1% DMSO (negative control). SYPRO Orange Dye and PqsE solutions were diluted in assay buffer and subsequently added to the wells to reach final concentrations of 7× SYPRO Orange and 2 µM PqsE. Final volume in each well was 80 µL. Plates were sealed with transparent optical adhesive covers (ThermoFisher) prior to measurement of SYPRO Orange fluorescence (ex, 580 nm; em, 623 nm) in a QuantStudio 3 Real-Time PCR system (ThermoFisher) over an increasing temperature gradient from 25 to 90°C (temperature increased at a rate of 0.1°C/s). Tm was determined from first derivative plots of the raw fluorescence curves using the Prism 9.0 software."}, "PqsE(S285A) [3]": {"target": "T4, PqsE(S285A) (Pseudomonas aeruginosa, UniProt P20581, S285A)", "experiment": "Differential scanning fluorimetry (DSF), PqsE(S285A)", "format": "binding", "settings": "compound 100 µM"}, "PqsE(E280A)": {"target": "T5, PqsE(E280A) (Pseudomonas aeruginosa, UniProt P20581, E280A)", "T5 construct": "made in house", "format": "binding", "settings": "PqsE(E280A) 2 µM, compound 100 µM"}, "PqsE(E182W/E280A)": {"target": "T6, PqsE(E182W/E280A) (Pseudomonas aeruginosa, UniProt P20581, E182W/E280A)", "T6 construct": "made in house", "format": "binding", "settings": "PqsE(E182W/E280A) 2 µM, compound 100 µM"}, "PqsE(S285W) [4]": {"target": "T7, PqsE(S285W) (Pseudomonas aeruginosa, UniProt P20581, S285W)", "T7 construct": "6xHis (N); made in house; host or cells: E. coli BL21 (DE3)", "format": "biochemical", "settings": "esterase assay"}, "PqsE(S285Y)": {"target": "T8, PqsE(S285Y) (Pseudomonas aeruginosa, UniProt P20581, S285Y)", "T8 construct": "made in house", "format": "binding", "settings": "PqsE(S285Y) 2 µM, compound 100 µM"}, "PqsE(S285W) [5]": {"target": "T7, PqsE(S285W)", "format": "binding", "settings": "compound 100 µM"}, "PqsE(E182A)": {"target": "T9, PqsE(E182A) (Pseudomonas aeruginosa, UniProt P20581, E182A)", "T9 construct": "made in house", "format": "binding", "settings": "PqsE(E182A) 2 µM, compound 100 µM"}, "[6]": {"system": "P. aeruginosa PA14 pqsE(S285W) mutant strain", "format": "cell-based", "settings": "50 or 100 µM"}, "PqsE(S285A) [7]": {"target": "T4, PqsE(S285A)", "experiment": "Esterase assay: inhibition of MU-butyrate hydrolysis by PqsE(S285A)", "format": "biochemical"}, "PqsE(E182W)": {"target": "T10, PqsE(E182W) (Pseudomonas aeruginosa, UniProt P20581, E182W)", "T10 construct": "made in house", "format": "binding", "settings": "PqsE(E182W) 2 µM, compound 100 µM"}, "[8]": {"system": "wild-type P. aeruginosa PA14", "experiment": "Pyocyanin assay, wild-type strain", "format": "cell-based, Pseudomonas aeruginosa", "settings": "pqsE(WT) strain, up to 100 µM", "experimental": "P. aeruginosa PA14 cultures were grown overnight in LB at 37°C with shaking. The saturated cultures were then diluted 1:1,000 into fresh LB containing test molecules in DMSO (final 1% DMSO). Cultures then grew for ~17 h at 37°C with shaking at 200 rpm. Next, 1 mL of each culture was collected and pelleted by centrifugation at 13,000 rpm for 3 min. The supernatant was carefully transferred to a cuvette, and the OD695 was measured in a Genesys 20 ThermoSpectronic spectrophotometer. The cell pellet was resuspended in 1 mL of PBS and then transferred into the wells of a clear 96-well plate at 100 µL per well. The OD600 was measured to assess cell density. Pyocyanin production (OD695) of the supernatants was normalized to cell density (OD600 of the resuspended cell pellets)."}},
  "data": [
    {"compound": "CC(C)(C)OC(=O)Nc1ccc(NC(=O)c2cccc3cn[nH]c23)cc1", "note": "[HJ1]", "values": [
      {"measurement": "Tm of PqsE-HJ complex", "setting": "PqsE(S285D)", "value": 67.2, "unit": "°C"},
      {"measurement": "∆Tm, shift in melting temperature vs DMSO-treated control", "setting": "PqsE(S285D)", "value": 0.35, "unit": "°C"},
      {"measurement": "effect on PqsE-RhlR complex formation", "setting": "PqsE-RhlR interaction", "value": "neither HJ1 nor HJ5 showed any effect on complex formation"},
      {"measurement": "maximum level of inhibition of PqsE(WT)", "setting": "PqsE(WT) [1]", "value": 100, "unit": "%"},
      {"measurement": "Tm of PqsE-HJ complex", "setting": "PqsE(WT) [2]", "value": 70.5, "unit": "°C"},
      {"measurement": "∆Tm, shift in melting temperature vs DMSO-treated control", "setting": "PqsE(WT) [2]", "value": 3.56, "unit": "°C"},
      {"measurement": "Tm of PqsE-HJ complex", "setting": "PqsE(S285A) [3]; PqsE(S285A) 2 µM", "value": 68.1, "unit": "°C"},
      {"measurement": "∆Tm, shift in melting temperature vs DMSO-treated control", "setting": "PqsE(S285A) [3]; PqsE(S285A) 2 µM", "value": 0.81, "unit": "°C"},
      {"measurement": "significance of shift in Tm compared to HJ2", "setting": "PqsE(S285A) [3]; PqsE(S285A)", "value": "neither HJ1 nor HJ5 induced significant shifts in Tm"},
      {"measurement": "Tm of PqsE-HJ complex", "setting": "PqsE(E280A)", "value": 68.8, "unit": "°C"},
      {"measurement": "∆Tm, shift in melting temperature vs DMSO-treated control", "setting": "PqsE(E280A)", "value": 2.28, "unit": "°C"},
      {"measurement": "Tm of PqsE-HJ complex", "setting": "PqsE(E182W/E280A)", "value": 72.4, "unit": "°C"},
      {"measurement": "∆Tm, shift in melting temperature vs DMSO-treated control", "setting": "PqsE(E182W/E280A)", "value": 2.58, "unit": "°C"},
      {"measurement": "effect of S285W substitution on binding/inhibition", "setting": "PqsE(S285W) [4]", "value": "completely abrogated binding"},
      {"measurement": "Tm of PqsE-HJ complex", "setting": "PqsE(S285Y)", "value": 68.3, "unit": "°C"},
      {"measurement": "∆Tm, shift in melting temperature vs DMSO-treated control", "setting": "PqsE(S285Y)", "value": 0.54, "unit": "°C"},
      {"measurement": "Tm of PqsE-HJ complex", "setting": "PqsE(S285W) [5]; PqsE(S285W) 2 µM", "value": 66.8, "unit": "°C"},
      {"measurement": "∆Tm, shift in melting temperature vs DMSO-treated control", "setting": "PqsE(S285W) [5]; PqsE(S285W) 2 µM", "value": 0.07, "unit": "°C"},
      {"measurement": "significance of shift in Tm compared to HJ2", "setting": "PqsE(S285W) [5]; PqsE(S285W)", "value": "neither HJ1 nor HJ5 induced significant shifts in Tm"},
      {"measurement": "Tm of PqsE-HJ complex", "setting": "PqsE(E182A)", "value": 70.1, "unit": "°C"},
      {"measurement": "∆Tm, shift in melting temperature vs DMSO-treated control", "setting": "PqsE(E182A)", "value": 0.50, "unit": "°C"},
      {"measurement": "effect on pyocyanin production", "setting": "[6]", "value": "no appreciable effect"},
      {"measurement": "increase of IC50 against PqsE(S285A) variant versus PqsE(WT)", "setting": "PqsE(S285A) [7]; 20 min", "value": "approximately 10 fold"},
      {"measurement": "maximum level of inhibition of PqsE(S285A)", "setting": "PqsE(S285A) [7]; % inhibition", "value": "~ 70%"},
      {"measurement": "Tm of PqsE-HJ complex", "setting": "PqsE(E182W)", "value": 74.4, "unit": "°C"},
      {"measurement": "∆Tm, shift in melting temperature vs DMSO-treated control", "setting": "PqsE(E182W)", "value": 0.98, "unit": "°C"},
      {"measurement": "effect on pyocyanin production", "setting": "[8]", "value": "no appreciable effect"}
    ]}
  ]
}
